Source: article PMC9295122, “Sialic Acid Derivatives Inhibit SiaT Transporters and Delay Bacterial Growth” (ACS Chemical Biology, 2022)
Like-named read-outs stand apart in the source and are kept apart here.

How the values were obtained:
[1] = biological target: T1, PmSiaT (Proteus mirabilis, UniProt B4EZY7); test: nanoDSF thermal shift assay, PmSiaT; format: binding; details: for Average 1 / Average 2 / Average 3 / Replicate 1 / Replicate 2 / Replicate 3: PmSiaT Tm; for Average 1: average of experiment 1; for Average 2: average of experiment 2; for Average 3: average of experiment 3; for Replicate 1: experiment 1, second capillary; for Replicate 1 / Replicate 2 / Replicate 3 / Tm 1 / Tm2 / Tm 3 / Tm average overall / ΔTm at 1250 µM: 1.25 mM; for Replicate 2: experiment 2, second capillary; for Replicate 3: experiment 3, second capillary; for Tm 1: experiment 1, first capillary; for Tm2: experiment 2, first capillary; for Tm 3: experiment 3, first capillary; for Tm average overall / ΔTm at 1250 µM: three experiments; for ΔTm at 1250 µM: vs Neu5Ac, read-out: ΔTm average overall
T1 construct: made in house
T1 sequence (B4EZY7 1-496): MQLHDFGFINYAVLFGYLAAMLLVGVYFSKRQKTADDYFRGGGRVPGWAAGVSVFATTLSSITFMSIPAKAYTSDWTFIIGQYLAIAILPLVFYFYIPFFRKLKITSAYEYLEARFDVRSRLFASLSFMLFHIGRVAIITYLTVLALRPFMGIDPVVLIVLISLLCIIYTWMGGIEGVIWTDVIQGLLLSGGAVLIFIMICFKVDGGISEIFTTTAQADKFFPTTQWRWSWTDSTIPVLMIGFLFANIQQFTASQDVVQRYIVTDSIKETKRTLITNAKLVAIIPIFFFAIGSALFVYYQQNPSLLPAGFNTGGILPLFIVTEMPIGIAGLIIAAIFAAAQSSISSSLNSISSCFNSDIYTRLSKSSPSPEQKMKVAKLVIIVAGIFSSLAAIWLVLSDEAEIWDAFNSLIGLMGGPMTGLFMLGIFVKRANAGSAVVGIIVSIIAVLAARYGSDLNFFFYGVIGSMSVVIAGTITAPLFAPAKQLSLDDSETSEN
Procedure, shortened: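 Protein at 2 μM in PBS with 0.0174% (w/v) DDM and ligand at 1.25 mM were heated from 25 to 95 °C at 1 °C/min, with 330/350 nm fluorescence ratio and its first derivative giving Tm. ΔTm is relative to the Neu5Ac Tm, averaged over 3 experiments with 2 capillaries each.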

[2] = biological target: SaSiaT (Staphylococcus aureus, UniProt A0A0H2XJ46); test: Isothermal titration calorimetry, SaSiaT; format: binding
Experimental: The binding thermodynamic analysis performed via isothermal titration calorimetry (ITC) provides insights into dissociation constants (Kd) and the binding driving forces of compounds 3a, 3e, and 3f with PmSiaT and SaSiaT.
Isothermal titration calorimetric experiments were performed on an ITC200 instrument (MicroCal, Northampton, USA) at 25 °C using standard instrument settings (reference power of 6 μcal s^–1, stirring speed of 750 rpm, feedback mode high, and filter period of 2 s). Protein solutions were dialyzed against ITC buffer (50 mM Tris–HCl, 150 mM NaCl, with 0.0174% (w/v) DDM, pH 8.0 at 5 °C) prior to the experiments, and all the samples were prepared using the dialysate buffer to minimize dilution effects. Protein concentrations were determined spectrophotometrically with the specific absorbance at 280 nm employing an extinction coefficient of 76,445 mol^–1 cm^–1 for PmSiaT and 75,750 M^–1 cm^–1 for SaSiaT. […] In a typical experiment, a 0.3–1.0 mM inhibitor solution was titrated to a solution containing 30–50 μM of PmSiaT or 13–20 μM of SaSiaT to ensure >90% saturation. Baseline correction, peak integration, and nonlinear regression analysis of experimental data were performed using the NITPIC (version 1.2.2.)[41] and SEDPHAT (version 12.1b)[42] software packages. The stoichiometry parameter was manually constrained to a value of 1. Experiments were performed in triplicate and the 68% confidence intervals from global fitting of three experiments were calculated as an estimate of the experimental error. All the titration curves can be found in Figures S10–S15.

[3] = LogD pH 7.4 shake flask; format: physicochemical; details: 1-octanol / phosphate buffer pH 7.4
Experimental: Distribution coefficients between 1-octanol and phosphate buffer pH 7.4 were determined with a shake flask method with the LC–UV detection of the compound concentration in both phases. The reported range was from −1 to +4.

[4] = Plasma stability, mouse; format: in vitro ADME; details: 1 μM, 37 °C
Experimental: The reaction was started by the addition of the compound to blank plasma in LC vials after preincubation at 37 °C. The initial compound concentration was 1 μM. The reaction was stopped by the addition of ACN at seven time points (0, 0.5, 1, 2, 4, 6, and 23 h). Time point 0 h was about 15–20 s after spiking the plasma with the compound. The samples were centrifuged and the supernatant diluted and analyzed by LC–MS/MS to determine the % of compound remaining relative to the initial concentration of compound.

[5] = Plasma-protein binding by RED, mouse; format: in vitro ADME; details: pH 7.2, read-out: Plasma-protein binding by RED (% unbound compound, average n=2)
Experimental: (§1) The assay was run in a deep well plate containing RED inserts with semipermeable dialysis membranes. The reaction was started by adding the compounds to a blank plasma in a 5 μM concentration. Opposite to the blank plasma was a compartment containing isotonic sodium–phosphate buffer (pH 7.2) separated from the plasma by the membrane. The plate was equilibrated in a water bath at 37 °C for 4 h. Samples from both the plasma and the buffer side were matrix compensated before protein precipitation. The samples were centrifuged, and the supernatants were diluted and analyzed by LC–MS/MS to determine the % unbound compound. Two incubations per compound per species.

[6] = Plasma-protein binding by RED, rat; format: in vitro ADME; details: pH 7.2, read-out: Plasma-protein binding by RED (% unbound compound, average n=2)
Experimental: as §1

[7] = PmSiaT, experiment 1, vs Neu5Ac, read-out: ΔTm 1
[8] = PmSiaT, experiment 2, vs Neu5Ac, read-out: ΔTm 2
[9] = nanoDSF, relative to Neu5Ac, ligand 1.25 mM, <−2.0 °C nonbinder, read-out: PmSiaT ΔTm
[10] = ITC, 25 °C, read-out: SaSiaT Kd
[11] = PmSiaT, experiment 3, vs Neu5Ac, read-out: ΔTm 3

Chain of SaSiaT (A0A0H2XJ46 entry or part of it): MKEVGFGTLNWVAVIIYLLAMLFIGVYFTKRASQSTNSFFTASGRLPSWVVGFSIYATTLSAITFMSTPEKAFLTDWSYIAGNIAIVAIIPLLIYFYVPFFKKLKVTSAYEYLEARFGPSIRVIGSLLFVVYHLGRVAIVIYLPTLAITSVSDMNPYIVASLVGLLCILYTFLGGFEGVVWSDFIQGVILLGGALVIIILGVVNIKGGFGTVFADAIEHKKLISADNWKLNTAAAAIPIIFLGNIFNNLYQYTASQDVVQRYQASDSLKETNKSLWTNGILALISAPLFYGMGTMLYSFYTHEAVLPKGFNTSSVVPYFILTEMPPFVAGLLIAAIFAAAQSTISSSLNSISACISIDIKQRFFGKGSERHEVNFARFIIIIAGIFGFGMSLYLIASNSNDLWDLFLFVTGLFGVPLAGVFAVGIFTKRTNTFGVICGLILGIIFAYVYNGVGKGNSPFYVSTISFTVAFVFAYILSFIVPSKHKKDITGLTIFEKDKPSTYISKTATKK

Structure (SMILES) | Average 1 [1] | Average 2 [1] | Average 3 [1] | Replicate 1 [1] | Replicate 2 [1] | Replicate 3 [1] | Tm 1 ([1]; PmSiaT) | ΔTm [1, 7] | Tm2 ([1]; PmSiaT) | ΔTm [1, 8] | Tm 3 ([1]; PmSiaT) | Tm average overall ([1]; PmSiaT) | ΔTm at 1250 µM ([1]; PmSiaT) | ΔTm [1, 9] | SaSiaT -TΔS° ([2]; ITC) | SaSiaT ΔG° ([2]; ITC) | SaSiaT ΔH° ([2]; ITC) | Kd [2, 10] | logD [3] | In vitro plasma stability (% compound remaining after 23 h) [4] | other results
CC(=O)NC1C(OCc2ccccc2)CC(O)(C(=O)O)OC1C(O)C(O)CO (stereo not shown) [Compound 3a] | 54.6 °C | 53.8 °C | 54.1 °C | 54.6 °C | 53.9 °C | 54.2 °C | 54.5 °C | 5.6 °C | 53.7 °C | 4.6 °C | 54.0 °C | 54.2 °C | 5 °C | 4.8 ± 0.5 °C | -16 kcal/mol | -6.91 kcal/mol | 9.08 kcal/mol | 8.8 ± 2.7 µM | < -0.5 | 100% | fraction unbound at 4 h, 5 μM [5]: 0.63; fraction unbound at 4 h, 5 μM [6]: 0.72
CC(=O)NC1C(OCc2cc(F)cc(F)c2)CC(O)(C(=O)O)OC1C(O)C(O)CO (stereo not shown) [Compound 3e] | 56.7 °C | 55.2 °C | 56.1 °C | 56.8 °C | 55.2 °C | 56.1 °C | 56.7 °C | 7.7 °C | 55.2 °C | 6 °C | 56.0 °C | 56.0 °C | 6.8 °C | 6.8 ± 0.9 °C | -16.5 kcal/mol | -7.36 kcal/mol | 9.15 kcal/mol | 4.1 ± 2.1 µM | < -0.5 | 100% | ΔTm [1, 11]: 6.8 °C; affinity increase for SaSiaT ([2]; compared to Neu5Ac): 31 fold; fraction unbound at 4 h, 5 μM [5]: 0.63; fraction unbound at 4 h, 5 μM [6]: 0.67
CC(=O)NC1C(OCc2cc(Br)cc(Br)c2)CC(O)(C(=O)O)OC1C(O)C(O)CO (stereo not shown) [Compound 3f] | – | 62.8 °C | 63.7 °C | 64.2 °C | 63.0 °C | 63.6 °C | 63.9 °C | 15 °C | 62.6 °C | 13.6 °C | 63.8 °C | 63.5 °C | – | 14.3 °C | -13.1 kcal/mol | -6.55 kcal/mol | 6.57 kcal/mol | 15.7 ± 7.3 µM | < 0 | 100% | fraction unbound at 4 h, 5 μM [5]: 0.23; fraction unbound at 4 h, 5 μM [6]: 0.21
CC(=O)N[C@H]1[C@H]([C@H](O)[C@H](O)CO)OC(O)(C(=O)O)C[C@@H]1O (stereo partly shown) [Neu5Ac, 5-N-acetyl neuraminic acid, reference compound] | 49.0 °C | 49.2 °C | 49.3 °C | 48.8 °C | 49.2 °C | 49.3 °C | 49.2 °C | 0 °C | 49.1 °C | 0 °C | 49.3 °C | 49.1 °C | 0 °C | 0 °C | -14.7 kcal/mol | -5.31 kcal/mol | 9.37 kcal/mol | – | – | – | ΔTm [1, 11]: 0 °C; Kd [2]: 130 ± 35 µM
